Experimental data: patent US7294643B2, “UK-1 analogues: methods of preparation and use” (Board of Regents, The University of Texas System, priority 2002, dated 2007)

Assays:
[1] = tested on: HT-29 cells; assay: alamarBlue cytotoxicity assay, HT-29; assay type: cell-based; settings: Homo sapiens; HT-29, alamarBlue, 72 h
Experimental: (§1) Cytotoxicity Assays. Cell culture cytotoxicity assays were performed using the. alamarBlue method, as described by Ahmed et al., J. Immun. Methods 1994, 170, 211-224, which is incorporated herein by reference. Briefly, aliquots of 100 μL of cell suspension (1.0-2.5×10^3 cells) was placed in 96-well microtiter plates in an atmosphere of 5% CO2 at 37° C. After 24 hours, 100 μL of culture medium and 2 μL of compound in vehicle (culture media with 40% pyridine) or vehicle alone were added, and the plates incubated an additional 72 hours. The final pyridine concentration in all cases was 0.4%; at this pyridine concentration there was no affect on the growth of cells compared to cells in culture media without added pyridine. […] After the culture media had been removed from each well, 200 μL of fresh media and 20 μL of 90% alamarBlue reagent were added, followed by an additional 6 h incubation. The fluorescent intensity was measured using a Spectrafluor Plus plate reader with excitation at 530 nm and emission at 590 nm. Results are reported as IC50 values, the average concentration required to produce a decrease of fluorescent intensity of 50% relative to vehicle-treated controls in two separate determinations.

[2] = tested on: PC-3 cells; assay: alamarBlue cytotoxicity assay, PC-3; assay type: cell-based, human; settings: PC-3, alamarBlue
Experimental: as §1

[3] = tested on: MDA-231; assay: alamarBlue cytotoxicity assay, MDA-231; assay type: cell-based; settings: Homo sapiens, MDA-MB-231; MDA-231, alamarBlue
Experimental: as §1

[4] = tested on: SKBR3; assay: alamarBlue cytotoxicity assay, SKBR3; assay type: cell-based; settings: Homo sapiens, SK-BR-3
Experimental: as §1

[5] = tested on: SK-N-F1; assay: alamarBlue cytotoxicity assay, SK-N-F1; assay type: cell-based
Experimental: as §1

[6] = tested on: SK-N-MC; assay: alamarBlue cytotoxicity assay, SK-N-MC; assay type: cell-based; settings: Homo sapiens
Experimental: as §1

[7] = tested on: IMR-32 neuroblastoma cell line; assay: alamarBlue cytotoxicity assay, IMR-32; assay type: cell-based; settings: Homo sapiens
Experimental: as §1

[8] = tested on: NGP neuroblastoma cell line; assay: alamarBlue cytotoxicity assay, NGP; assay type: cell-based
Experimental: as §1

[9] = alamarBlue cytotoxicity, range over three cell lines; assay type: cell-based; settings: human; range of concentrations required to inhibit growth of MCF-7, HT-29, and PC-3 cells by 50%
Experimental: as §1

[10] = Metal ion binding by continuous variation, Zn2+; settings: Zn^2+, methanol, 1:1 complex
Experimental: Previous work indicated the metal ion binding mechanism of UK-1, so the method of continuous variation was used to determine the ability of selected UK-1analogues to bind a variety of metal ions. Methanolic solutions of UK-1 or UK-1 analogues and metal ion salts [Ca(NO3)2, Mg(NO3)2, Zn(NO3)2, or Fe(NO3)3] at various molar ratios, and 20 μM combined total concentration, were prepared and the absorbance at 418 nm was determined. […] Compound 2.1 does bind with Ca^2+ and Zn^2+ better than UK-1.
Continuous variation plots. A 100 μM solution of UK-1 or analogue and 100 AM solutions of Ca(NO3)2, Mg(NO3)2, Zn(NO3)2, or Fe(NO3)3 were prepared in methanol. From these stock solutions, 15 samples (1 mL) of varying mole fraction of the metal ion were prepared at a constant, combined concentration of 20 μM for the ligand and the metal ion. The change in absorbance was monitored from 500 to 200 nm for each sample using as a reference a 1 mL solution containing the same concentration of ligand as the sample being measured but without the metal ion. The maximum absorbance change was typically around 418 nm but varied somewhat for each metal ion. The absorbance at 418 nm was plotted as a function of the mole fraction of the metal ion and the maximum absorbance change was determined. The absorbance of a sample containing the metal ion concentration corresponding to this maximum change and a 15 fold excess of metal ion at this ligand concentration, subtracted from a reference containing the same concentration of ligand but no metal ion was used to normalize the curve and obtain the conditional formation constant as described in the paper to Likussar, W.; Boltz, D. F. Anal. Chem. 1971, 43, 1265-1272, which is incorporated herein by reference.

[11] = tested on: double-stranded DNA oligonucleotide; assay: DNA binding by ESI-MS; parameters: key: MetalDepend.: all ligand-DNA complex ions also contained a metal ion.; None: no ligand-DNA complex ions observed.; MetalIndepend.: ligand-DNA and ligand-DNA-metal ion complex ions observed; settings: ligand-DNA complex ions, presence or absence of added NiCl2
[12] = tested on: Supercoiled ΦX174 DNA; assay: Cleavage of supercoiled DNA, agarose gel electrophoresis; assay type: biochemical; settings: 37° C.
Experimental: Supercoiled Φ[…] DNA (50 μM) was incubated for 24 hrs in pH 8 Tris buffer (10 mM) at 37° C. with UK-1 (15-25 μM), H2O2 (5 μM-5 mM), or NiCl2 (15-25 μM), or a combination of these agents. Agarose gel electrophoresis was carried out to resolve the DNA products. […] There was an increase in the proportion of nicked, relaxed DNA product in the presence of an oxidant (e.g., H2O2), but no linear DNA that would indicate double-stranded DNA cleavage. […] FIG. 5 depicts cleavage of supercoiled DNA by UK-1 in the presence of oxidizing agents and metal ions. Supercoiled Φ[…] DNA (50 μM bp) was incubated with UK-1 (23 μM), NiCl2 (23 μM), H2O2 (5 mM), or combinations of these agents at 37° C. for 24 h and the DNA products subjected to agarose gel electrophoresis with ethidium bromide staining. Lanes: C, untreated supercoiled DNA; 1, DNA+UK-1; 2, DNA+NiCl2; 3, DNA+H2O2; 4, DNA+UK-1+NiCl2; 5, DNA+UK-1+H2O2; 6, DNA+UK-1+NiCl2+H2O2; 7, DNA+NiCl2+H2O2.

COC(=O)c1cccc2oc(-c3cccc4oc(-c5ccccc5O)nc34)nc12 [UK-1]
IC50 [1]: 65000 nM
IC50 ([2]; Homo sapiens, PC-3, 72 h): 400 nM
IC50 ([2]; 72 h): 320 nM
IC50 [3]: 500 nM
IC50 [4]: 100 nM
IC50 [5]: 7000 nM
IC50 [6]: 1100 nM
IC50 ([7]; IMR-32, IMR-32, alamarBlue): 60 nM
IC50 ([7]; IMR-32, IMR-32, bound stated in text): < 100 nM
IC50 ([8]; alamarBlue): 20 nM
IC50 ([8]; bound stated): < 100 nM
IC50 at 72 h [9]: 320 to 65000 nM
Association constant for metal ion binding [10]: 2e+06 M⁻¹
DNA-Binding ESI-MS [11]: MetalDepend.^d
DNA cleavage ([12]; UK-1 and an oxidant (H2O2), 24 hrs): significantly more DNA cleavage
DNA cleavage ([12]; UK-1 only, 24 hrs, pH 8 Tris buffer): no evidence of DNA cleavage
DNA cleavage ([12]; combination of UK-1, H2O2, and NiCl2, 24 hrs): particularly active in inducing DNA cleavage
